Measurements taken from US20250009819A1, “NOVEL PROBIOTICS AND USE THEREOF” (PBLBIOLAB CO., LTD., priority 2021, published 2025).

Experiments:
Assay type in all cases: in vivo, C57BL/6 male mice
[1] = tested on: immunosuppressed animals induced by anticancer drug (cyclophosphamide); assay: Immunosuppressed animals induced by cyclophosphamide: improvement effect in spleen; conditions: cyclophosphamide (CP)-treated mice, 1×10^9 CFU/mouse orally once a day for 5 days; for Foxp3 (fold change) / Tbet (fold change) / Tbet/Foxp3: spleen qPCR; for IFN-γ/IL-10 / IL-10 / Interferon (IFN)-γ / NK cell cytoxicity (%) / Phagocytosis (%) / TNF-a/IL-10 / TNF-α: spleen
Protocol: (§1) Hippocampus, colon, and spleen tissues were homogenized by adding 1 ml of RIPA buffer (Gibco) containing protease inhibitor cocktail and centrifuged at 4° C., 13000 rpm for 15 min to obtain supernatant. Indicators of this supernatant were measured using an ELISA kit (Ebioscience).
(§2) mRNA was isolated from spleen tissue using the RNA Isolation Kit: RNeasy Mini Kit (QIAGEN), converted to cDNA, and qPCR was performed to measure the expression rates of Tbet, Foxp3, and glyceraldehyde 3-phosphate dehydrogenase (GAPDH). The reaction product was first treated at 95° C. for 30 seconds, followed by 38 cycles of 5 seconds at 95° C. and 30 seconds at 72° C. for analysis.
(§3) C57BL/6 male mice (5 weeks old, 19-21 g) were divided (6 mice in each group) and acclimatized to the laboratory for 1 week. To induce intestinal and brain diseases, the mice were administered with cyclophosphamide (CP, 150 mg/kg, dissolved in physiological saline) for 1 day, rested for 1 day, and then administered intraperitoneally the next day. Meanwhile, the normal group was administered intraperitoneally with 0.1 ml of physiological saline. […] The day following the conclusion of sample administration, the experimental animals were sacrificed, and samples from the brain hippocampus, colon, and spleen were collected. In the Hippocampus, inflammatory indicators, such as IFN-γ, TNF-α, and IL-10, were measured using ELISA. In the colon, intestinal length and inflammatory indicators, such as IFN-γ, TNF-α, and IL-10, were measured. In the spleen, Th1 cells and Treg cells were measured by FACS (Fluorescence-Activated Cell Sorting).

[2] = tested on: immunosuppressed animals induced by anticancer drug (cyclophosphamide); assay: Immunosuppressed animals induced by cyclophosphamide: cognitive improvement, hippocampus indicators; conditions: cyclophosphamide (CP)-treated mice, 1×10^9 CFU/mouse orally once a day for 5 days; for IFN-γ/IL-10 / IL-10 / Interferon (IFN)-γ / TNF-a/IL-10 / TNF-α: hippocampus
Protocol: as §1
(§4) The Y-shaped maze measurement device is shaped like an alphabetical Y with three arms extending from it, each arm being 25 cm long, 14 cm high, 5 cm wide, and positioned at the same angle. At the end of one arm of the Y-shaped maze, the animal was placed with its head facing out and allowed to freely navigate the arm for 8 minutes. The animal's movements were recorded, and reported as arm entries when the animal entered the arm with its hind paw, and the animal's movement was represented by an alternation, which was defined as one alternation when the animal passed through the three arms in succession. The amount of spontaneous alternation behavior was expressed as a percentage between the actual number of alternations and the maximum possible number of alternations (i.e., the total number of […] minus 2).
(§5) The experiment was conducted in a box (40×40×40 cm) made so that the outside could not be seen from the inside. Two objects (A, A′) of the same shape and size were fixedly disposed in a box and the mouse was relocated to start from the center of the box. Then, the number of times the mouse made contact with the two objects was recorded for 10 minutes. After 24 hours, one of the two objects was replaced with a new object (A, B). Then, one original object and one new object were prepared, and the animal's exploration time was measured.
as §3

[3] = tested on: animals with antibiotic-induced gut microbiota imbalance; assay: Animals with antibiotic (ampicillin)-induced gut microbiota imbalance: cognitive improvement, hippocampus indicators; conditions: ampicillin (AP)-treated mice, 1×10^9 CFU/mouse orally once a day for 5 days; for IFN-γ/IL-10 / IL-10 / Interferon (IFN)-γ / TNF-a/IL-10 / TNF-α: hippocampus
Protocol: as §1, §4, §5
(§6) C57BL/6 male mice (5 weeks old, 19-21 g) were divided (6 mice in each group) and acclimatized to the laboratory for 1 week. To induce intestinal and brain diseases, the mice were orally administered with ampicillin (AP, 100 mg/kg, dissolved in physiological saline) for 3 days. Meanwhile, the normal group was orally administered with 0.1 ml of physiological saline. […] The day following the conclusion of sample administration, the experimental animals were sacrificed, and samples from the brain hippocampus, colon, and spleen were collected. In the Hippocampus, inflammatory indicators, such as IFN-γ, TNF-α, and IL-10, were measured using ELISA. In the colon, intestinal length and inflammatory indicators, such as IFN-γ, TNF-α, and IL-10, were measured. In the spleen, Th1 cells and Treg cells were measured by FACS (Fluorescence-Activated Cell Sorting), and in feces, endotoxin (LPS) and gut microbial communities were measured.

healthy animal = assay: Healthy animal: spleen parameters; conditions: healthy mice, 1×10^9 CFU/mouse orally once a day for 5 days; for Foxp3 (fold change) / Tbet (fold change) / Tbet/Foxp3: spleen qPCR; for IFN-γ/IL-10 / IL-10 / Interferon (IFN)-γ / NK cell cytoxicity (%) / Phagocytosis (%) / TNF-a/IL-10 / TNF-α: spleen
Protocol: as §1, §2
C57BL/6 male mice (5 weeks old, 19-21 g) were divided (6 mice in each group) and acclimatized to the laboratory for 1 week. The mice were orally administered once a day for 5 days with lactic acid bacteria as a test sample suspended in physiological saline solution at a concentration of 1×10^9 CFU per mouse (NK210 alone (LR): 1×10^9 CFU/mouse, NK219 alone (BL): 1×10^9 CFU/mouse, combined (210+219): 210, 8×10^8 CFU/mouse and 219, 2×10^8 CFU/mouse). […] The day following the conclusion of sample administration, the experimental animals were sacrificed, and samples from the brain hippocampus, colon, and spleen were collected. In the Hippocampus, inflammatory indicators, such as IFN-γ, TNF-α, and IL-10, were measured using ELISA. In the colon, intestinal length and inflammatory indicators, such as IFN-γ, TNF-α, and IL-10, were measured. In the spleen, Th1 cells and Treg cells were measured by FACS (Fluorescence-Activated Cell Sorting).

gut microbiota = assay: Gut microbiota analysis in animals with ampicillin-induced gut microbiota imbalance (FIG. 1); conditions: feces, ampicillin-treated mice, result in words
Protocol: First, DNA from feces was isolated using the QIAamp DNA stool mini kit (Qiagen, Germany), pyrosequencing was performed by amplifying barcoded primers (V4 region of the bacterial 16S rRNA gene) to generate amplicons, and 16S rDNA was analyzed by Illumina iSeq 100 (San Diego, CA) to analyze occupancy.
as §6

Bifidobacterium longum NK219 was tested, and the “Foxp3 (fold change)” value [1] was 0.36 fold change, the “Tbet (fold change)” value [1] was 0.95 fold change and the Tbet/Foxp3 [1] was 2.49. The IFN-γ/IL-10 [1] was 2.11, the IL-10 [1] was 2.90 pg/mg and the “Interferon (IFN)-γ” value [1] was 5.56 pg/mg. The “NK cell cytoxicity (%)” value [1] was 8.90%, the “Phagocytosis (%)” value [1] was 50.36% and the TNF-a/IL-10 [1] was 0.87. For the same substance, the TNF-α [1] was 2.45 pg/mg, the “Exoporation (%) (in NOR task)” value [2] was 78.34% and the “Spontaneous alteration (%) (in Y-maze task)” value (from here on “Spontaneous alteration (%)”) [2] was 71.26%. The IFN-γ/IL-10 [2] was 0.44, the IL-10 [2] was 53.74 pg/mg and the “Interferon (IFN)-γ” value [2] was 23.48 pg/mg. The TNF-a/IL-10 [2] was 0.20, the TNF-α [2] was 10.91 pg/mg and the “Exoporation (%) (in NOR task)” value [3] was 83.21%. The “Spontaneous alteration (%)” value [3] was 70.54%, the IFN-γ/IL-10 [3] was 0.48 and the IL-10 [3] was 50.29 pg/mg. For the same substance, the “Interferon (IFN)-γ” value [3] was 24.33 pg/mg, the TNF-a/IL-10 [3] was 0.28 and the TNF-α [3] was 12.43 pg/mg. For the same substance, the “Foxp3 (fold change)” value (healthy animal) was 1.05 fold change, the “Tbet (fold change)” value (healthy animal) was 1.80 fold change and the Tbet/Foxp3 (healthy animal) was 1.86. For the same substance, the IFN-γ/IL-10 (healthy animal) was 1.35, the IL-10 (healthy animal) was 9.29 pg/mg and the “Interferon (IFN)-γ” value (healthy animal) was 12.56 pg/mg. The “NK cell cytoxicity (%)” value (healthy animal) was 8.52%, the “Phagocytosis (%)” value (healthy animal) was 64.57% and the TNF-a/IL-10 (healthy animal) was 0.38. The TNF-α (healthy animal) was 3.49 pg/mg and the “imbalance in the beta diversity, Proteobacteria, and Bacteroidetes of gut microbiota” value (gut microbiota) was “improved to a balanced form”.
In the case of Lactobacillus rhamnosus NK210, the “Foxp3 (fold change)” value [1] is reported as 0.37 fold change, the “Tbet (fold change)” value [1] is reported as 0.75 fold change and the Tbet/Foxp3 [1] is reported as 2.05. The IFN-γ/IL-10 [1] was 2.31, the IL-10 [1] was 3.31 pg/mg and the “Interferon (IFN)-γ” value [1] was 7.39 pg/mg. The “NK cell cytoxicity (%)” value [1] was 8.26%, the “Phagocytosis (%)” value [1] was 58.65% and the TNF-a/IL-10 [1] was 1.04. For the same substance, the TNF-α [1] was 3.20 pg/mg, the “Exoporation (%) (in NOR task)” value [2] was 78.71% and the “Spontaneous alteration (%)” value [2] was 70.94%. For the same substance, the IFN-γ/IL-10 [2] was 0.59, the IL-10 [2] was 43.29 pg/mg and the “Interferon (IFN)-γ” value [2] was 25.30 pg/mg. The TNF-a/IL-10 [2] was 0.24, the TNF-α [2] was 10.44 pg/mg and the “Exoporation (%) (in NOR task)” value [3] was 76.25%. The “Spontaneous alteration (%)” value [3] was 73.01%, the IFN-γ/IL-10 [3] was 0.47 and the IL-10 [3] was 48.89 pg/mg. The “Interferon (IFN)-γ” value [3] was 23.18 pg/mg, the TNF-a/IL-10 [3] was 0.26 and the TNF-α [3] was 13.37 pg/mg. For the same substance, the “Foxp3 (fold change)” value (healthy animal) was 1.05 fold change, the “Tbet (fold change)” value (healthy animal) was 1.41 fold change and the Tbet/Foxp3 (healthy animal) was 1.45. The IFN-γ/IL-10 (healthy animal) was 1.38, the IL-10 (healthy animal) was 9.45 pg/mg and the “Interferon (IFN)-γ” value (healthy animal) was 13.02 pg/mg. For the same substance, the “NK cell cytoxicity (%)” value (healthy animal) was 6.65%, the “Phagocytosis (%)” value (healthy animal) was 50.03% and the TNF-a/IL-10 (healthy animal) was 0.37. For the same substance, the TNF-α (healthy animal) was 3.48 pg/mg and the “imbalance in the beta diversity, Proteobacteria, and Bacteroidetes of gut microbiota” value (gut microbiota) was “improved to a balanced form”.
